The values that follow come from US9221809B2 (MERCK SHARP & DOHME CORP., priority 2011, dated 2015).

The structures appear in SMILES notation. Structures can show the parent of a compound that is named as a salt. Where two headings read alike, the source gives them in different places.

By IC50 is commonly meant the concentration that inhibits the measured activity by half.

The experiment has as its target IRAK4 (Homo sapiens (Human), UniProt Q9NWZ3). As to the kind of experiment: IRAK4 kinase activity, IMAP fluorescence polarization assay. Type of experiment: biochemical. As to conditions: 100 μM ATP, read-out: IRAK4 IC50. The method, boiled down: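 Fluorescence polarization (IMAP nanoparticle binding of phosphopeptide) reports activity after a 30 min, 25 °C reaction. Conditions: 100 μM ATP, 0.5 nM GST-IRAK4, 100 nM fluorescent peptide, 10 mM Tris pH 7.2, 1 mM MgCl2, 1 mM DTT, 0.01% Tween 20.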
In general terms: Polarisation of emitted light reports the rotation of a fluorescent probe.

Chain of IRAK4 (Q9NWZ3 whole entry): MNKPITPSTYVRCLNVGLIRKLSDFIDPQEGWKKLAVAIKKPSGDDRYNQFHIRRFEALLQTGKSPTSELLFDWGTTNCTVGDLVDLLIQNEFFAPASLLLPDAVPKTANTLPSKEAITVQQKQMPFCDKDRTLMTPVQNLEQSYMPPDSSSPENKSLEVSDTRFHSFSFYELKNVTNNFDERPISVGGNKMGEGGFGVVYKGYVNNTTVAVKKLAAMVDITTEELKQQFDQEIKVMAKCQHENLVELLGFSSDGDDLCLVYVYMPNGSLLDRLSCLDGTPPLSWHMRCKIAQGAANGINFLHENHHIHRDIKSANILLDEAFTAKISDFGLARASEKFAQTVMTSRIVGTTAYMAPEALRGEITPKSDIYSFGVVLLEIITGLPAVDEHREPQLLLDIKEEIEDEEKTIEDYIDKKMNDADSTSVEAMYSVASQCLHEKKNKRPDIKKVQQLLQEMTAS

As for `O=c1[nH]c(N2CCC(Cn3cccn3)CC2)nc(N[C@@H]2C[C@H](CO)[C@@H](O)[C@H]2O)c1-c1nc2ccccc2s1` [Example 80, 2-(4-((1H-pyrazol-1-yl)methyl)piperidin-1-yl)-5-(benzo[d]thiazol-2-yl)-6-((1R,2S,3R,4R)-2,3-dihydroxy-4-(hydroxymethyl)cyclopentylamino)pyrimidin-4(3H)-one], the IC50 (unit inferred) came out at 119 nM.

With `O=C1NC2(CCN(c3nc(N[C@@H]4C[C@H](CO)[C@@H](O)[C@H]4O)c(-c4nc5ccccc5s4)c(=O)[nH]3)CC2)CO1` [Example 81, 8-(5-(benzo[d]thiazol-2-yl)-4-((1R,2S,3R,4R)-2,3-dihydroxy-4-(hydroxymethyl)cyclopentylamino)-6-oxo-1,6-dihydropyrimidin-2-yl)-3-oxa-1,8-diazaspiro[4.5]decan-2-one], the IC50 (unit inferred) was 196 nM.

Regarding `O=c1[nH]c(N2CCC(c3ccccn3)C2)nc(N[C@@H]2C[C@H](CO)[C@@H](O)[C@H]2O)c1-c1nc2ccccc2s1` (stereo partly drawn) [Example 82, 5-(benzo[d]thiazol-2-yl)-6-((1R,2S,3R,4R)-2,3-dihydroxy-4-(hydroxymethyl)cyclopentylamino)-2-(3-(pyridin-2-yl)pyrrolidin-1-yl)pyrimidin-4(3H)-one], for the setting “unit inferred”, the IC50 came to 197 nM.

In the case of `O=c1[nH]c(N2CCOCC2)nc(NC2CCNC2)c1-c1nc2ccccc2s1` (stereo not drawn) [Example 85, 5-(Benzo[d]thiazol-2-yl)-2-morpholino-6-(pyrrolidin-3-ylamino)pyrimidin-4(3H)-one.HCl], the IC50 (0.5 nM GST tagged IRAK4) worked out at 177 nM.

As to `O=c1[nH]c(N2CCOCC2)nc(N[C@H]2CCNC2)c1-c1nc2ccccc2s1` [Example 86, (S)-5-(Benzo[d]thiazol-2-yl)-2-morpholino-6-(pyrrolidin-3-ylamino)pyrimidin-4(3H)-one.HCl], the IC50 (0.5 nM GST tagged IRAK4) was 620 nM.

With `O=c1[nH]c(N2CCOCC2)nc(N[C@@H]2CCNC2)c1-c1nc2ccccc2s1` [Example 87, (R)-5-(Benzo[d]thiazol-2-yl)-2-morpholino-6-(pyrrolidin-3-ylamino)pyrimidin-4(3H)-one.HCl], the IC50 (0.5 nM GST tagged IRAK4) was 36 nM.

For the compound `NC1CCCC(Nc2nc(N3CCOCC3)[nH]c(=O)c2-c2nc3ccccc3s2)C1` (stereo not drawn) [Example 90, 6-(3-Aminocyclohexylamino)-5-(benzo[d]thiazol-2-yl)-2-morpholinopyrimidin-4(3H)-one.HCl], the IC50 (0.5 nM GST tagged IRAK4) came out at 258 nM.

As for `O=C1NCCCC[C@H]1Nc1nc(N2CCOCC2)[nH]c(=O)c1-c1nc2ccccc2s1` [Example 91, (R)-3-(5-(Benzo[d]thiazol-2-yl)-2-morpholino-6-oxo-1,6-dihydropyrimidin-4-ylamino)azepan-2-one.HCl], the IC50 (0.5 nM GST tagged IRAK4) came to 2430 nM.

As to `O=c1[nH]c(N2CCOCC2)nc(NC2CCCCNC2)c1-c1nc2ccccc2s1` (stereo not drawn) [Example 92, 6-(Azepan-3-ylamino)-5-(benzo[d]thiazol-2-yl)-2-morpholinopyrimidin-4(3H)-one.HCl], the IC50 (0.5 nM GST tagged IRAK4) stood at 27 nM.

For the compound `O=c1[nH]c(N2CCOCC2)nc(N[C@@H]2CCCNC2)c1-c1ccc2ccccc2n1` [Example 93, (R)-2-Morpholino-6-(piperidin-3-ylamino)-5-(quinolin-2-yl)pyrimidin-4(3H)-one.HCl], the IC50 (0.5 nM GST tagged IRAK4) was determined as 26 nM.

In the case of `CN1CCC[C@@H](Nc2nc(N3CCOCC3)[nH]c(=O)c2-c2nc3ccccc3s2)C1` [Example 95, (R)-5-(Benzo[d]thiazol-2-yl)-6-(1-methylpiperidin-3-ylamino)-2-morpholinopyrimidin-4(3H)-one.HCl], under “0.5 nM GST tagged IRAK4”, the IC50 came to 354 nM.

On to `O=c1[nH]c(N2CCOCC2)nc(N[C@@H]2CCCNC2)c1-c1nc2cc(F)ccc2s1` [Example 97, (R)-5-(5-Fluorobenzo[d]thiazol-2-yl)-2-morpholino-6-(piperidin-3-ylamino)pyrimidin-4(3H)-one.HCl], for which the IC50 (0.5 nM GST tagged IRAK4) was 8.4 nM.

As for `O=c1[nH]c(N2CCOCC2)nc(N[C@@H]2CCCNC2)c1-c1nc(-c2ccc(F)cc2)cs1` [Example 98, (R)-5-(4-(4-Fluorophenyl)thiazol-2-yl)-2-morpholino-6-(piperidin-3-ylamino)pyrimidin-4(3H)-one.HCl], the IC50 (0.5 nM GST tagged IRAK4) came out at 24 nM.

`Cc1nccc2sc(-c3c(N[C@@H]4CCCNC4)nc(N4CCOCC4)[nH]c3=O)nc12` [Example 99, (R)-5-(4-Methylthiazolo[4,5-c]pyridin-2-yl)-2-morpholino-6-(piperidin-3-ylamino)pyrimidin-4(3H)-one.HCl]: the half-maximal inhibitory concentration (IC50) (0.5 nM GST tagged IRAK4) was determined as 5.7 nM.

In the case of `O=c1[nH]c(N2CCOCC2)nc(N[C@@H]2CCCNC2)c1-c1nc(C2CC2)cs1` [Example 100, (R)-5-(4-cyclopropylthiazol-2-yl)-2-morpholino-6-(piperidin-3-ylamino)pyrimidin-4(3H)-one.HCl], the half-maximal inhibitory concentration (IC50) (0.5 nM GST tagged IRAK4) turned out to be 433 nM.

In the case of `O=c1[nH]c(N2CCOCC2)nc(N[C@@H]2CCCNC2)c1-c1nccs1` [Example 101, (R)-2-morpholino-6-(piperidin-3-ylamino)-5-(thiazol-2-yl)pyrimidin-4(3H)-one.HCl], where the note is “0.5 nM GST tagged IRAK4”, the IC50 turned out to be 1830 nM.

Turning to `Cc1cnc(-c2c(N[C@@H]3CCCNC3)nc(N3CCOCC3)[nH]c2=O)s1` [Example 102, (R)-5-(5-methylthiazol-2-yl)-2-morpholino-6-(piperidin-3-ylamino)pyrimidin-4(3H)-one.HCl], under “0.5 nM GST tagged IRAK4”, the IC50 turned out to be 1270 nM.

Consider `O=c1[nH]c(N2CCOCC2)nc(N[C@@H]2CCCNC2)c1-c1nc(-c2ccc(OC(F)(F)F)cc2)cs1` [Example 103, (R)-2-morpholino-6-(piperidin-3-ylamino)-5-(4-(4-(trifluoromethoxy)phenyl)thiazol-2-yl)pyrimidin-4(3H)-one.HCl], for which the IC50 (0.5 nM GST tagged IRAK4) stood at 2250 nM.

As to `O=c1[nH]c(N2CCOCC2)nc(N[C@@H]2CCCCNC2)c1-c1nc2ccccc2s1` [Example 104, (R)-6-(azepan-3-ylamino)-5-(benzo[d]thiazol-2-yl)-2-morpholinopyrimidin-4(3H)-one.HCl], for the setting “0.5 nM GST tagged IRAK4”, the IC50 worked out at 79 nM.

`O=c1[nH]c(N2CCOCC2)nc(N[C@H]2CNC[C@H](O)C2)c1-c1nc2ccccc2s1` [Example 105, 5-(benzo[d]thiazol-2-yl)-6-(((3R,5R)-5-hydroxypiperidin-3-yl)amino)-2-morpholinopyrimidin-4(3H)-one.HCl]: the IC50 (0.5 nM GST tagged IRAK4) amounted to 85 nM.

On to `CC1CCC(Nc2nc(N3CCOCC3)[nH]c(=O)c2-c2ccc3ccccc3n2)CN1` (stereo not drawn) [Example 107, 6-((6-methylpiperidin-3-yl)amino)-2-morpholino-5-(quinolin-2-yl)pyrimidin-4(3H)-one.HCl], for which, where the note is “0.5 nM GST tagged IRAK4”, the IC50 amounted to 91 nM.

Regarding `Cc1cccc(-c2c(N[C@@H]3CCCNC3)nc(N3CCOCC3)[nH]c2=O)n1` [Example 109, (R)-5-(6-methylpyridin-2-yl)-2-morpholino-6-(piperidin-3-ylamino)pyrimidin-4(3H)-one], under “0.5 nM GST tagged IRAK4”, the IC50 was determined as 1470 nM.

Regarding `Cc1ccc(-c2c(N[C@@H]3CCCNC3)nc(N3CCOCC3)[nH]c2=O)nc1` [Example 110, (R)-5-(5-methylpyridin-2-yl)-2-morpholino-6-(piperidin-3-ylamino)pyrimidin-4(3H)-one], the IC50 (0.5 nM GST tagged IRAK4) was 872 nM.

With `O=c1[nH]c(N2CCOCC2)nc(N[C@@H]2CCCNC2)c1-c1nc2c(C3CC3)nccc2s1` [Example 111, (R)-5-(4-cyclopropylthiazolo[4,5-c]pyridin-2-yl)-2-morpholino-6-(piperidin-3-ylamino)pyrimidin-4(3H)-one.HCl], for the setting “0.5 nM GST tagged IRAK4”, the IC50 was 9 nM.

Regarding `O=c1[nH]c(N2CCOCC2)nc(N[C@@H]2CCCNC2)c1-c1nc2ccc(F)cc2s1` [Example 112, (R)-5-(6-fluorobenzo[d]thiazol-2-yl)-2-morpholino-6-(piperidin-3-ylamino)pyrimidin-4(3H)-one.HCl], where the note is “0.5 nM GST tagged IRAK4”, the IC50 was determined as 46 nM.

For `O=c1[nH]c(N2CCOCC2)nc(N[C@@H]2CCCNC2)c1-c1nc2cnccc2s1` [Example 113, (R)-2-morpholino-6-(piperidin-3-ylamino)-5-(thiazolo[4,5-c]pyridin-2-yl)pyrimidin-4(3H)-one.HCl], under “0.5 nM GST tagged IRAK4”, the IC50 worked out at 12 nM.

For the compound `O=c1[nH]c(N2CCCC2)nc(N[C@@H]2CCCNC2)c1-c1ccc2ccccc2n1` [Example 114, (R)-6-(piperidin-3-ylamino)-2-(pyrrolidin-1-yl)-5-(quinolin-2-yl)pyrimidin-4(3H)-one.HCl], where the note is “0.5 nM GST tagged IRAK4”, the IC50 was 24 nM.

For the compound `O=c1[nH]c(N2CCCCC2)nc(N[C@@H]2CCCNC2)c1-c1ccc2ccccc2n1` [Example 115, (R)-2-(piperidin-1-yl)-6-(piperidin-3-ylamino)-5-(quinolin-2-yl)pyrimidin-4(3H)-one.HCl], the IC50 (0.5 nM GST tagged IRAK4) turned out to be 54 nM.

On to `CN1CCN(c2nc(N[C@@H]3CCCNC3)c(-c3ccc4ccccc4n3)c(=O)[nH]2)CC1` [Example 116, (R)-2-(4-methylpiperazin-1-yl)-6-(piperidin-3-ylamino)-5-(quinolin-2-yl)pyrimidin-4(3H)-one.HCl], for which the IC50 (0.5 nM GST tagged IRAK4) turned out to be 97 nM.

On to `O=c1[nH]c(N2CCCCC2)nc(N[C@@H]2CCCNC2)c1-c1nc2c(C3CC3)nccc2s1` [Example 117, (R)-5-(4-cyclopropylthiazolo[4,5-c]pyridin-2-yl)-2-(piperidin-1-yl)-6-(piperidin-3-ylamino)pyrimidin-4(3H)-one.HCl], for which, for the setting “0.5 nM GST tagged IRAK4”, the IC50 came to 8.6 nM.

Regarding `O=c1[nH]c(N2CCCC2)nc(N[C@@H]2CCCNC2)c1-c1nc2c(C3CC3)nccc2s1` [Example 118, (R)-5-(4-cyclopropylthiazolo[4,5-c]pyridin-2-yl)-6-(piperidin-3-ylamino)-2-(pyrrolidin-1-yl)pyrimidin-4(3H)-one.HCl], the half-maximal inhibitory concentration (IC50) (0.5 nM GST tagged IRAK4) amounted to 14 nM.

As to `CN1CCN(c2nc(N[C@@H]3CCCNC3)c(-c3nc4c(C5CC5)nccc4s3)c(=O)[nH]2)CC1` [Example 120, (R)-5-(4-cyclopropylthiazolo[4,5-c]pyridin-2-yl)-2-(4-methylpiperazin-1-yl)-6-(piperidin-3-ylamino)pyrimidin-4(3H)-one.HCl], for the setting “0.5 nM GST tagged IRAK4”, the IC50 was determined as 30 nM.

As for `O=c1[nH]c(N2CCOCC2CO)nc(N[C@@H]2CCCNC2)c1-c1nc2ccccc2s1` (stereo partly drawn) [Example 125, 5-(benzo[d]thiazol-2-yl)-2-(3-(hydroxymethyl)morpholino)-6-((R)-piperidin-3-ylamino)pyrimidin-4(3H)-one], the IC50 came to 864 nM.
